Source: patent publication US12668568B2, “Adamantanyl-substituted benzamide compounds and their use as P2X7 receptor antagonists” (The University of Sydney, priority 2018, dated 2026)
Where two headings read alike, the source gives them in different places.

Legend:
[1] = In vivo pharmacokinetic study, intravenous bolus; settings: rat, 1 mg/kg intravenous bolus; for AUC / AUC(0-inf) / clearance / half-life / Tmax / Vd / Cmax: male, Hans Wistar
Method: Male Hans Wistar rats were purchased from Charles River Laboratories UK. During the acclimatisation period the rats were group housed in cages of three and maintained under a 12 hour light/dark cycle with free access to food and water. Temperature and humidity were controlled according to UK Home Office regulations.
All compounds were formulated immediately prior to dosing in 10% DMSO, 20% Cremophor EL, 70% saline to provide 1 mg/ml solutions. Each rat received a weight corrected dose of formulated drug at 1 mg/kg administered by intravenous bolus injection via a lateral tail vein.
Terminal plasma and brain samples were collected from n=3 animals at specified time points (0.017, 0.083, 0.25, 0.5, 1, 2, 4 and 6 hours following dose administration).
Drug quantification was performed using liquid chromatography-tandem mass spectrometry using electrospray ionisation. Pharmacokinetic parameters were calculated using Phoenix WinNonlin software.

CYP1A2 = molecular target: T1, CYP1A2 (Homo sapiens, UniProt P05177); assay: Cytochrome profiling CYP1A2 (baculosomes); assay type: in vitro ADME; settings: probe fluorogenic probe substrate (not named), 10 μM substrate
T1 construct: host or cells: insect cells infected with recombinant baculovirus (microsomes)
T1 sequence (P05177 1-516): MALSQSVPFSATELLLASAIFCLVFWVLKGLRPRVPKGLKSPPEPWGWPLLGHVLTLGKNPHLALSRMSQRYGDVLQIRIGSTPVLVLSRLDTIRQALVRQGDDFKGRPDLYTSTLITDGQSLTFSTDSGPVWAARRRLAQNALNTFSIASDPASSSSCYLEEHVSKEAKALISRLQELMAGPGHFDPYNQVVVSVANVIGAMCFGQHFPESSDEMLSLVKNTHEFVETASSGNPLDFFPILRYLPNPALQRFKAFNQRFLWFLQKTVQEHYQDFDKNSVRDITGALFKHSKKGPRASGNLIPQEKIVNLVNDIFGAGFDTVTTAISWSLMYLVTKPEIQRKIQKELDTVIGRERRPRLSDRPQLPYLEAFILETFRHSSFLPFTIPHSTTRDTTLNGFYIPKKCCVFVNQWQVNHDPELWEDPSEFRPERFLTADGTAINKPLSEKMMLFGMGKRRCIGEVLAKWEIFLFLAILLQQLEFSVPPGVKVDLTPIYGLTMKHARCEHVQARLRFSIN
Description: Cytochrome P450 (abbreviated CYP, P450 or CYP450) belong to very large and diverse superfamily of haemoproteins which accept both exogenous and endogenous compounds as substrates in enzymatic reactions and play a major role in drug metabolism. Although this class has more than 50 enzymes just 5 of them (CYP1A2, CYP2C9, CYP2C19, CYP2D6 and CYP3A4) are able to metabolise almost 90% of all drugs. Inhibition of these enzymes is one of the major reasons for drug-drug interactions. Consequently, detailed CYP inhibition profiles are a regulatory requirement for all new drugs. Inhibition potencies against the five most relevant CYP isoforms is performed using baculosomes; microsomes prepared from insect cells infected with recombinant baculovirus containing cDNA for a specific human P450 isozyme. The baculosomes are incubated with drug at a concentration of 1 μM in the presence of a probe substrate for 60 minutes at 37° C. The probe is normally metabolised by the baculosomes to produce a fluorescent metabolite. A substrate drug will compete for the isozyme and reduce the metabolism of the probe resulting in a decrease in the fluorescent signal. The percent inhibition due to the presence of the test compound is calculated using the following equation: [formula] • X=fluorescent intensity observed in the presence of test compound • A=fluorescent intensity observed in control • B=fluorescent intensity observed in the presence of the probe control

[2] = system: secreted IL-1β in THP-1 monocytic cells; assay: IL-1β dose-response testing in THP-1 monocytic cell line; assay type: cell-based; settings: Homo sapiens; THP-1 treated with interferon-γ and lipopolysaccharide 3 hours, compound 1-1000 nM, ATP stimulation; read-out: LogEC50, secreted IL-1β (converted)
Method: Supernatant was collected to measure the level of secreted IL-1β.
Cells were plated in 48-well Corning cell-bind plates at 2×10^5 cells/well, and treated with recombinant human interferon-γ (10 ng/mL) and lipopolysaccharide (25 ng/mL) for 3 hours. […] Supernatant was collected to measure the level of secreted IL-1ß.
(§1) Changes in secreted and intracellular levels of IL-1β were measured by ELISA (RnD systems). Samples were diluted 1 in 2 in commercial diluent, assayed according to manufacturer's instructions and detected at 450/570 nm.

[3] = system: ATP-induced IL-1β secretion in PBMCs; assay: IL-1β ELISA in patient-derived PBMCs/monocytes (STEMI and controls); assay type: cell-based, human; settings: pre-incubated with 1 μmol/L compound
Description: The role of inflammation in cardiovascular disease processes was explored. Patients that were admitted to the Royal North Shore Hospital, Sydney, Australia for clinically indicated cardiac catheterisation were consented for the study. These patients were subdivided according to their clinical presentation: • 1. Patients presenting with STEMI, characterised by recent-onset chest pain, ECG changes and/or raised cardiac enzymes. • 2. Age and sex-matched control patients with no evidence of coronary stenosis on angiography.
Patients were excluded from the study if they were taking anti-inflammatory medications, or if they had clinical or biochemical evidence of active infection or inflammation.
20 mL of blood was collected from the arterial sheath into an EDTA-coated tube. Samples were immediately diluted 1:1 in phosphate buffered saline (PBS) and layered on top of Ficoll-Paque for gradient separation. Samples were centrifuged at […] for 15 minutes. […]
as §1
Peripheral blood mononuclear cells (PBMCs) were collected from 19 STEMI patients at the time of infarct, and 3 healthy controls. […] IL-1β levels were measured by ELISA.

[4] = brain, read-out: T1/2 Brain (converted)
[5] = plasma, read-out: T1/2 Plasma (converted)

| Structure (SMILES) | AUC ([1]; brain, read-out: AUC6 Brain) [ng·h/mL] | AUC(0-inf) ([1]; brain, read-out: AUC∞ Brain) [ng·h/mL] | clearance ([1]; brain, read-out: Cl Brain) [mL/min/kg] | half-life [1, 4] [min] | Tmax ([1]; brain, read-out: Tmax Brain) [min] | Vd ([1]; brain, read-out: Vd Brain) [L/kg] | Cmax ([1]; plasma) [ng/mL] | AUC ([1]; plasma, read-out: AUC6 Plasma) [ng·h/mL] | AUC(0-inf) ([1]; plasma, read-out: AUC∞ Plasma) [ng·h/mL] | clearance ([1]; plasma, read-out: Cl Plasma) [mL/min/kg] | half-life [1, 5] [min] | Tmax ([1]; plasma, read-out: Tmax Plasma) [min] | Vd ([1]; plasma, read-out: Vd Plasma) [L/kg] | Cmax Brain ([1]; brain) [ng/mL] | inhibition at 60 min, 1 μM (CYP1A2) [%] | T1/2 Brain ([1]; brain) [min] | T1/2 Plasma ([1]; plasma) [min] | EC50 [2] [nM] | secreted IL-1β after ATP stimulation, STEMI PBMCs ([3]; STEMI patients' PBMCs) | secreted IL-1β after ATP stimulation, control PBMCs ([3]; healthy controls' PBMCs) |
| --- | --- | --- | --- | --- | --- | --- | --- | --- | --- | --- | --- | --- | --- | --- | --- | --- | --- | --- | --- | --- |
| COc1ccc(Cl)c(C(=O)NCC23CC4CC(CC(F)(C4)C2)C3)c1 [Compound 3, 2-Chloro-N-((3-fluoroadamantan-1-yl)methyl)-5-methoxybenzamide] | 286 | 291 | 57.3 | 25.8 | 1.2 | 0.92 | 1260 | 175 | 178 | 93.4 | 25.8 | 1.2 | 1.8 | 2422 | 7.86 | – | – | – | – | – |
| COc1ccc(Cl)c(C(=O)NCC23CC4CC(CC(C4)C2)C3)c1 [Compound 31, reference compound] | 221 | 246 | 67.8 | – | 1.2 | 0.77 | 1190 | 186 | 192 | 86.9 | – | 1.2 | 2.09 | 1696 | 25.7 | 9.6 | 28.2 | – | – | – |
| COc1ccc(Cl)c(C(=O)NCC23CC4(F)CC(F)(CC(F)(C4)C2)C3)c1 [Compound 1, 2-Chloro-N-((3,5,7-trifluoroadamantan-1-yl)methyl)-5-methoxybenzamide] | 380 | 386 | 43.2 | – | 1.2 | 2.1 | 1290 | 385 | 399 | 41.8 | – | 1.2 | 2.75 | 1464 | 5.48 | 75.6 | 103 | 8.53 | 13.9±2.4 | 7.5±2.8 |
| COc1ccc(Cl)c(C(=O)NCC23CC4CC(F)(CC(F)(C4)C2)C3)c1 [Compound 2, 2-Chloro-N-((3,5-difluoroadamantan-1-yl)methyl)-5-methoxybenzamide] | 209 | 217 | 76.9 | 35.4 | 1.2 | 1.54 | 1720 | 196 | 199 | 83.5 | 28.2 | 1.2 | 1.41 | 1838 | 7.04 | – | – | – | – | – |
